# Patent US9590187B2, “Substituent-eliminable diketopyrrolopyrrole derivative, organic semiconductor material precursor solution, organic semiconductor material, and organic semiconductor material film” (RICOH COMPANY, LTD., priority 2013, dated 2017)
# How the values were obtained:
# [1] = Evaluation of solubility in organic solvents (saturated solution after reflux, cooling to room temperature, filtration, drying); format: physicochemical; conditions: reflux 10 minutes, cooled to room temperature, stand 16 hours, 0.2-μm PTFE filter
# Method: Add each of the compounds obtained in the above Examples 1-6 to each of toluene, THF, and chloroform until it gets undissolved. Agitate each solution for 10 minutes under solvent reflux, then cool it to room temperature, further agitate it for 1 hour, and allow it to stand for 16 hours. Filter the supernatant liquid with a 0.2-μm PTFE filter to obtain a saturated solution. Dry the solution under reduced pressures to calculate solubility of each compound against each solvent. Evaluation criteria are as follows.
# A: Solubility is 0.5% by weight or more.
# B: Solubility is 0.05% by weight or more and less than 0.5% by weight.
# C: Solubility is 0.005% by weight or more and less than 0.05% by weight.
# D: Solubility is less than 0.005% by weight.
# [2] = Thermogravimetric measurement of the elimination reaction (EXSTAR 6200, nitrogen atmosphere); format: physicochemical; conditions: observed within 190 to 210° C.
# Method: (§1) Put the above-prepared substituent-eliminable derivative No. 6 (5 mg, 0.10 mmol) in an aluminum pan and heat it to 300° C. at a rate of 10° C./min with a thermal analysis instrument (EXSTAR 6200 from Seiko Instruments Inc.) under nitrogen atmosphere. Thus, a dark purple solid (3.8 mg) is obtained. m/z=704.1 (M+H).
# as §1, with “No. 9” for “No. 6”, “mg, […]” for “mg, 0.10 mmol)”, “to 250°” for “to 300°”, “of 20°” for “of 10°”, “(M+H). The thermogravimetric measurement result is shown in FIG. 3.” for “(M+H).”
# Repeat the procedures in Example 4 except for replacing the substituent-eliminable derivative No. 6 with No. 16 (5 mg, 4.6 μmol). Thus, a dark purple specific compound (4.2 mg) is obtained. m/z=872.2 (M+H).
# [3] = heated to 300° C. at 10° C./min
smiles,measurement,setting,value
CCCCC(CC)CN1C(=O)C2=C(c3ccc(-c4cccc(OC(=O)OC(C)(C)C)c4)s3)N(CC(CC)CCCC)C(=O)C2=C1c1ccc(-c2cccc(OC(=O)OC(C)(C)C)c2)s1 (stereo not drawn) [Substituent-eliminable Derivative No. 9],Solubility in THF,[1],A (Solubility is 0.5% by weight or more.)
same,Solubility in Chloroform,[1],A (Solubility is 0.5% by weight or more.)
same,Solubility in Toluene,[1],A (Solubility is 0.5% by weight or more.)
same,Decrease in weight (thermogravimetric),[2]; heated to 250° C. at 20° C./min,21.2%
CCCCC(CC)CN1C(=O)C2=C(c3ccc(-c4cccc(O)c4)s3)N(CC(CC)CCCC)C(=O)C2=C1c1ccc(-c2cccc(O)c2)s1 (stereo not drawn) [Specific Compound No. 9],Solubility in THF,[1],D (Solubility is less than 0.005% by weight.)
same,Solubility in Chloroform,[1],D (Solubility is less than 0.005% by weight.)
same,Solubility in Toluene,[1],D (Solubility is less than 0.005% by weight.)
CCCCC(CC)CN1C(=O)C2=C(c3ccc(-c4ccc(-c5cccc(O)c5)s4)s3)N(CC(CC)CCCC)C(=O)C2=C1c1ccc(-c2ccc(-c3cccc(O)c3)s2)s1 (stereo not drawn) [Specific Compound No. 16],Solubility in THF,[1],D (Solubility is less than 0.005% by weight.)
same,Solubility in Chloroform,[1],D (Solubility is less than 0.005% by weight.)
same,Solubility in Toluene,[1],D (Solubility is less than 0.005% by weight.)
CCCCC(CC)CN1C(=O)C2=C(c3ccc(-c4ccc(O)cc4)s3)N(CC(CC)CCCC)C(=O)C2=C1c1ccc(-c2ccc(O)cc2)s1 (stereo not drawn) [Specific Compound No. 6],Solubility in THF,[1],D (Solubility is less than 0.005% by weight.)
same,Solubility in Chloroform,[1],D (Solubility is less than 0.005% by weight.)
same,Solubility in Toluene,[1],D (Solubility is less than 0.005% by weight.)
CCCCC(CC)CN1C(=O)C2=C(c3ccc(-c4ccc(OC(=O)OC(C)(C)C)cc4)s3)N(CC(CC)CCCC)C(=O)C2=C1c1ccc(-c2ccc(OC(=O)OC(C)(C)C)cc2)s1 (stereo not drawn) [Substituent-eliminable Derivative No. 6],Solubility in THF,[1],A (Solubility is 0.5% by weight or more.)
same,Solubility in Chloroform,[1],A (Solubility is 0.5% by weight or more.)
same,Solubility in Toluene,[1],B (Solubility is 0.05% by weight or more and less than 0.5% by weight.)
same,Decrease in weight (thermogravimetric),[2]; [3],21.5%
CCCCC(CC)CN1C(=O)C2=C(c3ccc(-c4ccc(-c5cccc(OC(=O)OC(C)(C)C)c5)s4)s3)N(CC(CC)CCCC)C(=O)C2=C1c1ccc(-c2ccc(-c3cccc(OC(=O)OC(C)(C)C)c3)s2)s1 (stereo not drawn) [Substituent-eliminable Derivative No. 16],Solubility in THF,[1],A (Solubility is 0.5% by weight or more.)
same,Solubility in Chloroform,[1],A (Solubility is 0.5% by weight or more.)
same,Solubility in Toluene,[1],A (Solubility is 0.5% by weight or more.)
same,Decrease in weight (thermogravimetric),[2]; [3],18.5%
